For data set [1], the system named is CHO cells. The data set can be described thus: Transfection of CHO cells with pCMV-Luc DNA:lipid complexes, luciferase activity. Format: cell-based, Chinese Hamster. The conditions noted are these: for luciferase activity (transfection activity): 1 μg pCMV-Luc DNA, liposomes DOPE:cationic lipid 1:1 mol:mol, absence of serum, 36 hours after transfection.
In data set [2] the test system is CHO cells. The data set can be described thus: Toxicity of lipids: protein per well 36 hours after transfection, CHO cells.
Data set [3] deals with BL6 cells. The data set can be described thus: Transfection of BL6 cells with pCMV-Luc DNA:lipid complexes, luciferase activity. Format: cell-based, murine. The conditions noted are these: DOPE:lipid 1:1 mol:mol, FIG. 8. The protocol:
(§1) 2 μmol of Lipid dissolved in chloroform was transferred to a test tube. A solution of DOPE (2 umol) in chloroform was then added to this test tube. The chloroform was evaporated by passing a stream of nitrogen through the test tube to obtain a thin film of at the bottom of the test tube. Further drying was done in a desiccator under high vacuum for 30 minutes. 2 ml of distilled water was then added to the test tubes. The test tubes were stoppered and vortexed for one minute followed by sonication until the size of the particles was between 100 to 200 nm. The size of the particles was measured by Coulter particle size analyzer.
(§2) CHO, 293 and BL6 cells were obtained from the American Type Culture Collection (ATCC). Chinese Hamster Ovarian (“CHO”) cells were maintained in F-12 nutrient medium supplemented with 10% fetal bovine serum, antibiotics (1% penicillin-streptomycin) and 1% glutamine; human embryonic kidney 293 cells and murine melanoma BL6 cells were cultured in DMEM medium supplemented with 10% fetal bovine serum, antibiotics (1% penicillin-streptomycin) and 1% glutamine. […]
(§3) Luciferase activity was assayed by measuring the luminescence obtained after adding the substrate (Promega) to in aliquot of lysate. This luminescence was measured in a luminometer for 25 seconds.

Data set [4] relates to CHO cells.
A short description of data set [5]: Stability of liposomes, retention of diameter over time. Format: physicochemical. The following applies: all lipid 5:DOPE ratios shown in FIG. 11. The protocol: as §1
The X axis of FIG. 11 refers to the total liposomal lipid mixed with 1 μg pCMV-Luc DNA:lipid complexes.

The next data set relates to Mice. The data set can be described thus: In vivo transfection with pCMV-Luc DNA:lipid complexes. The following applies: intratumoral or intravenous, 30 μg pCMV-Luc DNA with 30 nmols liposomal lipid (1:1 lipid 5:DOPE), 1-5 days. The protocol: Mice are injected intratumorally or intravenously with 50 μl of solution containing pCMV-Luc DNA (30 μg) complexed with 30 nmols of liposomal lipid (1:1 mol/mol lipid 5:DOPE). Animals are sacrificed 1-5 days later and extracts from tumor tissue (intratumor injection) or lung, liver and blood (intravenous injection) are assayed for luciferase activity and protein levels.

The subject of the next data set is 293 cells. The data set can be described thus: Transfection of 293 cells with pCMV-Luc DNA:lipid complexes, luciferase activity. Format: cell-based, human. The following applies: DOPE:lipid 1:1 mol:mol, FIG. 7. The procedure: as §1, §2, §3
The subject of data set [6] is CHO cells. The data set can be described thus: Serum sensitivity of transfection of CHO cells. Format: cell-based, Chinese Hamster. The conditions noted are these: 1 μg DNA, 10% serum.
The test system of a further data set is Caski. The data set can be described thus: Transfection of Caski cells. The format is cell-based. The conditions noted are these: data not shown. The protocol: (§4) Lipid 5 was further compared with DC-Chol by transfecting BL6 cells with lipid 5- or DC-Chol-containing DNA:lipid complexes (FIGS. 7 and 8 respectively). […] Lipid 5 was also tested in several cell lines including HeLa, Siha and Caski which are somewhat difficult to transfect when compared with CHO or 293 cells.

For a further data set, the system named is Siha. The data set can be described thus: Transfection of Siha cells. The format is cell-based. The following applies: data not shown. The protocol:
as §4

For another data set, the system named is HeLa. The data set can be described thus: Transfection of HeLa cells. The conditions noted are these: data not shown. Format: cell-based. The procedure:
as §4

For data set [7], the system named is BL6 cells. The data set can be described thus: Toxicity of lipids: protein per well 36 hours after transfection, BL6 cells. Format: cell-based, murine. The following applies: DOPE:lipid 1:1, FIG. 10. The procedure:
Toxicity was assayed by measuring the amount of protein remaining in each well 36 hours after treatment with the indicated amount of liposome.
The toxicity of lipids was assayed by measuring the protein concentration in each well by Coomassie blue reagent (Píerce) 36 hours after transfection. Greater concentrations of protein per well indicated less toxicity of the tested lipids.
FIGS. 9 and 10 show the toxicity of lipid 5 compared to that of DC-Chol in CHO and BL6 cells respectively, where toxicity was assessed by measuring the amount of protein in each well after transfection of cells with DNA:lipid complexes formulated by mixing DNA and liposomes containing DOPE and DC-Chol or DOPE and lipids.

“Also recorded” adds a separate entry of the source. Where two headings read alike, the source gives them in different places.

As for `CC(C)CCC[C@@H](C)[C@H]1CC[C@H]2[C@@H]3CC=C4C[C@@H](OC(=O)NCCN(C)C)CC[C@]4(C)[C@H]3CC[C@]12C` [DC-Chol, 3β [N-(N′,N′-dimethylaminoethane)carbamoyl] cholesterol, reference compound], in the data set on CHO cells [1], the “luciferase activity (transfection activity)” value (“luciferase activity” below) was “lipid 5>DC-Chol>lipid 4”. Further, the “appearance of transfected cells observed under microscope” value in the data set on CHO cells [2] (cell line (CHO or BL6) not specified, data not shown) is “some necrosis”.

As for `CC(C)CCC[C@@H](C)[C@H]1CC[C@H]2[C@@H]3CC=C4C[C@@H](OC(=O)NCCN5CCNCC5)CC[C@]4(C)[C@H]3CC[C@]12C` [lipid 2, 4{N-2-ethylamino[(3′-β-cholesteryl)carbamoyl]}piperazine], the “luciferase activity” value in the data set on CHO cells [1] is given as “low activity”.

Regarding `CC(C)CCC[C@@H](C)[C@H]1CC[C@H]2[C@@H]3CC=C4C[C@@H](OC(=O)NCCN5CCOCC5)CC[C@]4(C)[C@H]3CC[C@]12C` [lipid 3, {N-2-ethylamino[(3′-β-cholesteryl)carbamoyl]}morpholine], the “luciferase activity” value with CHO cells [1] is “low activity”.

On to `CC(C)CCC[C@@H](C)[C@H]1CC[C@H]2[C@@H]3CC=C4C[C@@H](OC(=O)NCCCN5CCOCC5)CC[C@]4(C)[C@H]3CC[C@]12C` [lipid 4], for which the “luciferase activity” value in the data set with CHO cells [1] is listed as “lipid 5>DC-Chol>lipid 4; also recorded: reasonable activity”.

For the molecule `CC(C)CCC[C@@H](C)[C@H]1CC[C@H]2[C@@H]3CC=C4C[C@@H](OC(=O)NN5CCN(C)CC5)CC[C@]4(C)[C@H]3CC[C@]12C` [lipid 5, N-methyl{4-N-amino[(3′-β-cholesteryl)carbamoyl]}piperazine], the figures for the “luciferase activity” value in the data set with BL6 cells [3], in the data set on 293 cells and in the data set with CHO cells [1] were “almost equally as active as DC-Chol”, “almost equally as active as DC-Chol” and “lipid 5>DC-Chol>lipid 4; also recorded: high activity”, respectively. Also, the “appearance of transfected cells observed under microscope” value in the data set on CHO cells [4] was “healthy”. In data set [5], the “liposome stability (retention of diameter over time)” value was “stable liposomes”. Besides, the “in vivo transfection activity (luciferase in tissue extracts)” value with Mice is recorded as “exhibit in vivo transfection activity”. In addition, the “activity retained relative to the 0% serum complexes” value was “approximately 40%” in the data set with CHO cells [6] (5 nmol lipid 5 (1:1 with DOPE)), “approximately 40%” in the data set on CHO cells [6] (10 nmol lipid 5 (1:1 with DOPE)) and 10% in the data set with CHO cells [6] (20 nmol lipid 5 (1:1 with DOPE)). The “ability to transfect cells” value in the data set with Caski, in the data set on Siha and in the data set with HeLa was “slightly better than DC-Chol” each time. Also, the “transfection activity (luciferase)” value with CHO cells [1] (lipid 5:DOPE ratio of 2:8, FIG. 11) is “less activity”; in the data set with CHO cells [1] (lipid 5:DOPE ratio of 4:6, FIG. 11), “very similar transfection activities”; with CHO cells [1] (lipid 5:DOPE ratio of 5:5, FIG. 11), “very similar transfection activities”; in the data set with CHO cells [1] (lipid 5:DOPE ratio of 6:4, FIG. 11) it was “highest activity among all complexes”; in the data set on CHO cells [1] (lipid 5:DOPE ratio of 8:2, FIG. 11), “less activity”. Also, the “toxicity relative to DC-Chol” value in the data set on CHO cells [2] is listed as “reduced toxicity”. Besides, the “toxicity: amount of protein in each well after transfection” value was “more protein than cells transfected with DC-Chol-containing complex” in the data set with CHO cells [2] (CHO cells, DOPE:lipid 1:1, 36 hours, FIG. 9) and “more protein than cells transfected with DC-Chol-containing complex” in the data set with BL6 cells [7].

In the case of `CC(C)CCC[C@@H](C)[C@H]1CC[C@H]2[C@@H]3CC=C4C[C@@H](OC(=O)NCCN5CCCC5)CC[C@]4(C)[C@H]3CC[C@]12C` [lipid 6, {N-2-ethylamino[(3′-β-cholesteryl)carbamoyl]}pyrrolidine], the “toxicity relative to DC-Chol” value with CHO cells [4] was “less toxic than DC-Chol”. For the same molecule, the “luciferase activity” value with CHO cells [1] was “less active than DC-Chol”.

Take `CC(C)CCC[C@@H](C)[C@H]1CC[C@H]2[C@@H]3CC=C4C[C@@H](OC(=O)NCCN5CCCCC5)CC[C@]4(C)[C@H]3CC[C@]12C` [lipid 7, {N-2-ethylamino[(3′-β-cholesteryl)carbamoyl]}piperidine]: the “toxicity relative to DC-Chol” value in the data set on CHO cells [4] was “less toxic than DC-Chol”. In addition, the “luciferase activity” value in the data set with CHO cells [1] is listed as “less active than DC-Chol”.

Consider “(imidazole) propyl carbamoyl cholesteryl [lipid IM]”, for which the “luciferase activity” value with CHO cells [1] was “slightly less active than DC-Chol”.

Regarding “pyridyl (ethyl) carbamoyl cholesteryl [lipid PY]”, the “luciferase activity” value with CHO cells [1] was “much less active”. For the same molecule, in the data set on CHO cells [2], the “toxicity relative to DC-Chol” value was “comparable toxicity to DC-Chol”.

These data come from US6927213B2, “Cationic cholesteryl derivatives containing cyclic polar groups” (University of Pittsburgh, priority 1996, dated 2005).
